Legend:
Myzus persicae = Myzus persicae test (drench application) on cabbage plants, with predatory bugs added; assay type: in vivo; conditions: flubendiamide alone, 1 mg of ai/l soil, cabbage plants (Brassica oleracea)
Text: The expected action for a given combination of two active compounds can be calculated as follows, using the formula of S. R. Colby, Weeds 15 (1967), 20-22:
• X is the kill rate, expressed as % of the untreated control, when employing active compound A at an application rate of m g/ha, m mg of ai/plant or in a concentration of m ppm, • Y is the kill rate, expressed as % of the untreated control, when employing the beneficial species at an application rate of n animals or n units, and • E is the kill rate, expressed as % of the untreated control, when employing active compound
A and beneficial species B at an application rate of m ppm, m mg of ai/plant or g/ha and n animals or units,
If the actual insecticidal or acaricidal kill rate exceeds the calculated value, the kill of the combination is superadditive, i.e. a synergistic effect is present. In this case, the actually observed kill rate must exceed the value calculated using the above formula for the expected kill rate (E). […]
After the application, the predatory bugs (Macrolophus caliginosus) are added in a defined amount. After the desired period of time, the kill of the pest in % is determined 100% means that all of the aphids have been destroyed; 0% means that none of the aphids have been destroyed.
The kill rates determined are entered into Colby's formula (see above).

Plutella xylostella = Plutella xylostella test (drench application on rock wool); assay type: in vivo; conditions: for Kill in % after 7^d: 1 mg of ai/plant, drench, cabbage plants
Procedure: To produce a suitable preparation of active compound, 1 part by weight of active compound is mixed with the stated amounts of solvent and emulsifier, and the concentrate is diluted with water to the desired concentration.
Cabbage plants (Brassica oleracea) are watered with an active compound preparation of the desired concentration and infected with larvae of the diamondback moth (Plutella xylostella).
After the desired period of time, the kill of the pest in % is determined 100% means that all caterpillars have been killed; 0% means that none of the caterpillars have been killed.

Structure (SMILES): Cc1cc(C(F)(C(F)(F)F)C(F)(F)F)ccc1NC(=O)c1cccc(I)c1C(=O)NC(C)(C)CS(C)(=O)=O [flubendiamide, 3-iodo-N′-(2-mesyl-1,1-dimethylethyl)-N-{4-[1,2,2,2-tetrafluoro-1-(trifluoromethyl)ethyl]-o-tolyl}phthalamide]
- Kill in % after 4^h (Myzus persicae): 45%
- systemic efficacy (Plutella xylostella; applied to soil-less substrates): surprisingly good systemic efficacy
- Kill in % after 7^d (Plutella xylostella; on rock wool): 97%
- Kill in % after 7^d (Plutella xylostella; on sandy loam (prior art)): 40%

Reference: US20100310518A1, “Combinations of Flubendiamide and Beneficial Species” (Bayer CropScience AG, priority 2009, published 2010)
